Test results taken from US8969590B1, “Autotaxin inhibitors” (University of Memphis Research Foundation, priority 2007, dated 2015).

Tests used:
ATX (autotaxin) = target: T1, ATX (autotaxin) (Homo sapiens, UniProt Q13822); assay: ATX inhibition assay: ATX-catalyzed FS-3 hydrolysis, fluorescence, concentrated conditioned medium from MDA MB-435 cells as ATX source; type: biochemical; conditions: for % ATX Activity at 10 μM: 10 μM compound, FS-3 substrate, read at 1 hour, normalized to vehicle control, mean ± S.D. of at least three wells
T1 construct: conditioned serum-free medium (CCM) from MDA MB-435 cells as the source of ATX; endogenous in cells; host or cells: MDA-MB-435 cells (secreted into serum-free conditioned medium, concentrated ~10 fold)
Protocol: The efficacy of these compounds was determined by evaluating fluorescence of autotaxin at specific wavelengths. The test protocol was as follows:
In terms of ATX inhibition analysis determinations, MDA-MB-435 cells were cultured at 37° C. and 5% CO2 in Dulbecco's Modified Eagle Medium (DMEM) (MediaTech, Herndon, Va.) containing 5% fetal bovine serum (Hyclone, Logan, Utah), 100 U/ml penicillin, 100 μg/ml streptomycin (Hyclone, Logan, Utah) and 292 μg/ml L-glutamine (Hyclone, Logan, Utah). Cells were grown to ˜80% confluence at which time the cells were washed twice with sterile phosphate buffered saline prior to the addition of serum free DMEM containing L-glutamine. Conditioned medium was collected after 24-30 hours, supplemented with 20% ethylene glycol and was clarified by centrifugation at 3000×g and 4° C. for 10 min. The media was concentrated ˜10 fold and buffer exchanged into Tris (50 mM, pH 7.4) containing 20% ethylene glycol using an Amicon 8050 cell fitted with a PM30 filter (Millipore, Billerica, Mass.). Aliquots of concentrated conditioned media were stored at 4° C. until needed.
ATX inhibition was assayed using FS-3 (Echelon Biosciences, Inc., Salt Lake City, Utah, USA) as a substrate and ˜10 times concentrated conditioned serum-free medium (CCM) from MDA MB-435 cells as the source of ATX. Assays were performed in 96-well plates with CCM comprising one-third of the total volume and final FS-3 and charcoal-stripped fatty acid free BSA concentrations of 1 and 30 μM in assay buffer (1 mM each CaCl2 and MgCl2, 5 mM KCl, 140 mM NaCl, 50 mM Tris pH 8.0). Fluorescence was read at 5 minute intervals by a Synergy2 system (BioTek, Winooski, Vt.) with excitation and emission wavelengths of 485 and 538 nm, respectively. Results are shown at 1 hour, at which point all fluorescence changes as a function of time were linear. Fluorescence readings were normalized to vehicle control after subtraction of fluorescence in the absence of CCM. Data are shown as the mean±S.D. of at least three wells.

ATX = ATX (Homo sapiens, UniProt Q13822); conditions: prior art; cited from earlier work

Row | % ATX Activity at 10 μM (ATX (autotaxin)) [%] | SMILES | other results
1 | 31 ± 5 | O=C(O)c1ccc(Oc2ccc(C(=O)c3ccc4c(c3)C(=O)N(c3cccc5ccccc35)C4=O)cc2)cc1 [Compound 5210574] | 
2 | 45 ± 10 | O=C(O)c1cccc(NC(=O)c2ccc3c(c2)C(=O)N(c2ccc(/N=N/c4ccccc4)cc2)C3=O)c1 [Compound 5564949] | inhibition at 10 µM (ATX (autotaxin); 10 μM concentration, read-out: ATX inhibition (reduction of ATX-catalyzed FS-3 hydrolysis)): 51%

The remaining lines, values behind:

Row | SMILES | % ATX Activity at 10 μM (ATX (autotaxin)) [%] | other results
3 | O=C(O)c1cc(C(=O)O)cc(N2C(=O)c3ccc(C(=O)c4ccc5c(c4)C(=O)N(c4cc(C(=O)O)cc(C(=O)O)c4)C5=O)cc3C2=O)c1 [Compound 5186522] | 49 ± 10 | 
4 | O=C(NN1C(=O)c2ccc(C(=O)c3ccc4c(c3)C(=O)N(NC(=O)c3ccncc3)C4=O)cc2C1=O)c1ccncc1 [Compound 5538444] | 31 ± 4 | 
5 | O=C(O)c1ccc(NC(=O)c2ccc3c(c2)C(=O)N(c2ccc(/N=N/c4ccccc4)cc2)C3=O)cc1 [Compound 5564676] |  | ATX inhibition (reduction of ATX-catalyzed FS-3 hydrolysis) (ATX (autotaxin); 10 μM concentration): no reduction levels at all
6 | O=C(O)c1ccc2c(c1)C(=O)N(c1cccc(C(=O)Nc3cccc(Cl)c3)c1)C2=O [Compound 5711925] | 48 ± 5 | 
7 | O=C(O)c1ccc(CN2C(=O)c3ccc(C(=O)c4ccc5c(c4)C(=O)N(Cc4ccc(C(=O)O)cc4)C5=O)cc3C2=O)cc1 [Compound 5761473] | 46 ± 6 | 
8 | CCn1c(SCC(=O)Nc2ccc(C(C)=O)cc2)nc2nc3c(cc2c1=O)CCCC3 [Compound 7921385] | 21 ± 6 | 
9 | N[C@@H](Cc1c[nH]cn1)C(=O)O [L-histidine] |  | Concentration required for ATX inhibition efficacy (ATX): millimolar concentrations were required for any efficacy
